PubChem BioAssay AID220 (DTP/NCI, 2004)
“And” between values parts separate entries of the source, which are not always exact repeats. Equal values may be shown once. Records with an inconclusive call do not appear.

Tested on: CD8F1 mice, subcutaneous mammary adenocarcinoma, T/C%
Experiment: NCI In Vivo Anticancer Drug Screen. Data for tumor model Mammary Adenocarcinoma CD8F1 (subcutaneous) in CD8F1
Details: higher = larger tumour
How it was run: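 Compound-treated versus vehicle-treated mice with transplantable tumors; survival or tumor size compared as T/C.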

[1] = endpoint: median tumor weight change, dose: 125.0 mg/kg/injection, schedule: Q01DX001 (ip), vehicle: saline with Tween-80
[2] = endpoint: median tumor weight change, dose: 125.0 mg/kg/injection, schedule: Q01DX001 (ip), vehicle: saline
[3] = endpoint: median tumor weight change, dose: 500.0 mg/kg/injection, schedule: Q01DX001 (ip), vehicle: saline with Tween-80
[4] = endpoint: median tumor weight (est.), dose: 50.0 mg/kg/injection, schedule: Q07DX005 (ip), vehicle: Klucel (hydroxypropylcellulose) (HPC)
[5] = endpoint: median tumor weight change, dose: 62.5 mg/kg/injection, schedule: Q01DX001 (ip), vehicle: saline with Tween-80
[6] = endpoint: median tumor weight change, dose: 250.0 mg/kg/injection, schedule: Q01DX001 (ip), vehicle: saline with Tween-80
[7] = endpoint: median tumor weight change, dose: 125.0 mg/kg/injection, schedule: Q01DX001 (ip), vehicle: water

Compound: CC1=CC(=NN=c2cc(C)n([O-])c(C)c2)C=C(C)[N+]1=O
- T/C (endpoint: median tumor weight change, dose: 100.0 mg/kg/injection, schedule: Q01DX001 (ip), vehicle: suspension in saline): 76 % of control
- T/C [1]: 118 % of control
- T/C [2]: 55 % of control
- T/C (endpoint: median tumor weight change, dose: 200.0 mg/kg/injection, schedule: Q01DX001 (ip), vehicle: suspension in saline): 85 % of control
- T/C (endpoint: median tumor weight change, dose: 250.0 mg/kg/injection, schedule: Q01DX001 (ip), vehicle: saline): 117 % of control
- T/C (endpoint: median tumor weight change, dose: 400.0 mg/kg/injection, schedule: Q01DX001 (ip), vehicle: suspension in saline): 80 % of control
- T/C [3]: 94 % of control
- T/C (endpoint: median tumor weight change, dose: 500.0 mg/kg/injection, schedule: Q01DX001 (ip), vehicle: saline): 100 % of control
- T/C (endpoint: median tumor weight change, dose: 800.0 mg/kg/injection, schedule: Q01DX001 (ip), vehicle: suspension in saline): 40 % of control
- T/C (endpoint: median tumor weight change, dose: 1000.0 mg/kg/injection, schedule: Q01DX001 (ip), vehicle: saline): 17 % of control

Compound: CN(Cc1cnc2nc(N)nc(N)c2n1)c1c(Cl)cc(C(=O)NC(CCC(=O)O)C(=O)O)cc1Cl (configuration not stated)
- T/C (endpoint: median tumor weight (est.), dose: 25.0 mg/kg/injection, schedule: Q07DX005 (ip), vehicle: Klucel (hydroxypropylcellulose) (HPC)): 72 % of control and 82 % of control
- T/C [4]: 53 % of control and 65 % of control

Compound: O=C1N[C@@H]([C@H]2CC[C@H](Cl)CN2)C(=O)N[C@H]1[C@H]1CC[C@H](Cl)CN1
- T/C (endpoint: median tumor weight (est.), dose: 0.75 mg/kg/injection, schedule: Q07DX005 (ip), vehicle: saline): 40 % of control
- T/C (endpoint: median tumor weight (est.), dose: 1.5 mg/kg/injection, schedule: Q07DX005 (ip), vehicle: saline): 29 % of control
- T/C (endpoint: median tumor weight (est.), dose: 3.0 mg/kg/injection, schedule: Q07DX005 (ip), vehicle: saline): 11 % of control

Compound: CCN(CC)CCNc1ccc(C)c2sc3ccc(O)cc3c(=O)c12
- T/C [5]: 59 % of control
- T/C [1]: 169 % of control
- T/C (endpoint: median tumor weight change, dose: 684.0 mg/kg/injection, schedule: Q01DX001 (ip), vehicle: saline with Tween-80): 37 % of control

Compound: COc1ccc(S(=O)(=O)N=N/C=C2\C=CC=CN2O)cc1OC
- T/C (endpoint: median tumor weight change, dose: 31.25 mg/kg/injection, schedule: Q01DX001 (ip), vehicle: saline with Tween-80): 60 % of control
- T/C [5]: 87 % of control
- T/C [6]: 106 % of control

Compound: O=S(=O)(O)O.[NH-]C1CCCCC1[NH-].[Pt+2] (configuration not stated)
- T/C (endpoint: mean tumor weight, dose: 0.63 mg/kg/injection, schedule: Q07DX006 (ip), vehicle: water): 54 % of control
- T/C (endpoint: mean tumor weight, dose: 1.25 mg/kg/injection, schedule: Q07DX006 (ip), vehicle: water): 44 % of control
- T/C (endpoint: mean tumor weight, dose: 2.5 mg/kg/injection, schedule: Q07DX006 (ip), vehicle: water): 4 % of control
- T/C (endpoint: mean tumor weight, dose: 5.0 mg/kg/injection, schedule: Q07DX006 (ip), vehicle: water): 1 % of control
- T/C (endpoint: median tumor weight (est.), dose: 0.63 mg/kg/injection, schedule: Q07DX005 (ip), vehicle: dextrose): 81 % of control
- T/C (endpoint: median tumor weight (est.), dose: 0.63 mg/kg/injection, schedule: Q07DX005 (ip), vehicle: water): 74 % of control
- T/C (endpoint: median tumor weight (est.), dose: 1.25 mg/kg/injection, schedule: Q07DX005 (ip), vehicle: dextrose): 41 % of control
- T/C (endpoint: median tumor weight (est.), dose: 1.25 mg/kg/injection, schedule: Q07DX005 (ip), vehicle: water): 55 % of control
- T/C (endpoint: median tumor weight (est.), dose: 2.5 mg/kg/injection, schedule: Q07DX005 (ip), vehicle: dextrose): 83 % of control
- T/C (endpoint: median tumor weight (est.), dose: 2.5 mg/kg/injection, schedule: Q07DX005 (ip), vehicle: water): 41 % of control
- T/C (endpoint: median tumor weight (est.), dose: 5.0 mg/kg/injection, schedule: Q07DX005 (ip), vehicle: dextrose): 33 % of control
- T/C (endpoint: median tumor weight (est.), dose: 5.0 mg/kg/injection, schedule: Q07DX005 (ip), vehicle: water): 3 % of control

Compound: Oc1ccc(O)cc1
- T/C (endpoint: median tumor weight (est.), dose: 12.5 mg/kg/injection, schedule: Q07DX004 (ip), vehicle: saline): 36 % of control
- T/C (endpoint: median tumor weight (est.), dose: 25.0 mg/kg/injection, schedule: Q07DX004 (ip), vehicle: saline): 76 % of control
- T/C (endpoint: median tumor weight (est.), dose: 50.0 mg/kg/injection, schedule: Q07DX004 (ip), vehicle: saline): 68 % of control
- T/C (endpoint: median tumor weight (est.), dose: 100.0 mg/kg/injection, schedule: Q07DX004 (ip), vehicle: saline): 57 % of control

Compound: CCCCCCCC(=O)OCC(=O)[C@]1(O)Cc2c(O)c3c(c(O)c2[C@@H](OC2CC(N)C(O)C(C)O2)C1)C(=O)c1c(OC)cccc1C3=O (some centres not stated)
- T/C (endpoint: mean tumor weight, dose: 1.0 mg/kg/injection, schedule: Q07DX006 (ip), vehicle: saline): 62 % of control
- T/C (endpoint: mean tumor weight, dose: 2.0 mg/kg/injection, schedule: Q07DX006 (ip), vehicle: saline): 19 % of control
- T/C (endpoint: median tumor weight (est.), dose: 1.0 mg/kg/injection, schedule: Q07DX005 (ip), vehicle: saline): 64 % of control
- T/C (endpoint: median tumor weight (est.), dose: 2.0 mg/kg/injection, schedule: Q07DX005 (ip), vehicle: saline): 64 % of control
- T/C (endpoint: median tumor weight (est.), dose: 4.0 mg/kg/injection, schedule: Q07DX005 (ip), vehicle: saline): 66 % of control
- T/C (endpoint: median tumor weight (est.), dose: 8.0 mg/kg/injection, schedule: Q07DX005 (ip), vehicle: saline): 11 % of control

Compound: NCC1CCC(C(=O)O)CC1 (configuration not stated)
- T/C [1]: 63 % of control
- T/C [6]: 86 % of control
- T/C [3]: 36 % of control
- T/C (endpoint: median tumor weight change, dose: 1000.0 mg/kg/injection, schedule: Q01DX001 (ip), vehicle: saline with Tween-80): 97 % of control
- T/C (endpoint: median tumor weight change, dose: 2000.0 mg/kg/injection, schedule: Q01DX001 (ip), vehicle: saline with Tween-80): 62 % of control

Compound: C1CC[N-]CC1.[Cl][Pt+2][Cl].[NH-]C1CC1
- T/C (endpoint: median tumor weight change, dose: 31.0 mg/kg/injection, schedule: Q01DX001 (ip), vehicle: water): 116 % of control
- T/C (endpoint: median tumor weight change, dose: 62.0 mg/kg/injection, schedule: Q01DX001 (ip), vehicle: water): 121 % of control
- T/C (endpoint: median tumor weight change, dose: 62.5 mg/kg/injection, schedule: Q01DX001 (ip), vehicle: distilled water + Tween-80): 26 % of control
- T/C [7]: 21 % of control

Compound: CCC(C(=O)O)C(=O)O.[NH-]CC1CCCC[N-]1.[Pt+2]
- T/C [2]: 51 % of control

Compound: COC(=O)[C@@]12OC[C@]34[C@H]([C@@H](O)[C@@H]1O)[C@@]1(C)CC(=O)C(O)=C(C)[C@@H]1C[C@H]3OC(=O)[C@H](OC(=O)/C=C(/C)C(C)(C)O)[C@@H]24
- T/C (endpoint: median tumor weight (est.), dose: 0.05 mg/kg/injection, schedule: Q07DX005 (ip), vehicle: saline): 92 % of control
- T/C (endpoint: median tumor weight (est.), dose: 0.1 mg/kg/injection, schedule: Q07DX005 (ip), vehicle: saline): 88 % of control
- T/C (endpoint: median tumor weight (est.), dose: 0.2 mg/kg/injection, schedule: Q07DX005 (ip), vehicle: saline): 67 % of control
- T/C (endpoint: median tumor weight (est.), dose: 0.4 mg/kg/injection, schedule: Q07DX005 (ip), vehicle: saline): 100 % of control
- T/C (endpoint: median tumor weight (est.), dose: 0.8 mg/kg/injection, schedule: Q07DX005 (ip), vehicle: saline): 90 % of control

Compound: O=C1CN(CCN2CC(=O)N(CN3CCOCC3)C(=O)C2)CC(=O)N1CN1CCOCC1
- T/C (endpoint: median tumor weight change, dose: 15.62 mg/kg/injection, schedule: Q01DX001 (ip), vehicle: water): 53 % of control
- T/C (endpoint: median tumor weight change, dose: 31.25 mg/kg/injection, schedule: Q01DX001 (ip), vehicle: water): 64 % of control
- T/C (endpoint: median tumor weight change, dose: 62.5 mg/kg/injection, schedule: Q01DX001 (ip), vehicle: water): 96 % of control
- T/C [7]: 40 % of control

Compound: CC(=O)NC(CCc1ccc(Cl)c(Cl)c1)c1cccc(O)c(=O)c1 (configuration not stated)
- T/C (endpoint: median tumor weight change, dose: 31.0 mg/kg/injection, schedule: Q01DX001 (ip), vehicle: Klucel (hydroxypropylcellulose) (HPC)): 114 % of control
- T/C (endpoint: median tumor weight change, dose: 62.0 mg/kg/injection, schedule: Q01DX001 (ip), vehicle: Klucel (hydroxypropylcellulose) (HPC)): 99 % of control
- T/C (endpoint: median tumor weight change, dose: 125.0 mg/kg/injection, schedule: Q01DX001 (ip), vehicle: Klucel (hydroxypropylcellulose) (HPC)): 165 % of control
- T/C (endpoint: median tumor weight change, dose: 250.0 mg/kg/injection, schedule: Q01DX001 (ip), vehicle: Klucel (hydroxypropylcellulose) (HPC)): 88 % of control
- T/C (endpoint: median tumor weight change, dose: 500.0 mg/kg/injection, schedule: Q01DX001 (ip), vehicle: Klucel (hydroxypropylcellulose) (HPC)): 88 % of control

Compound: CC1=C[C@@]23[C@H](C=C(C(=O)O)[C@@H]2COC(=O)[C@]32CO2)[C@@H]1C
- T/C (endpoint: median tumor weight change, dose: 0.31 mg/kg/injection, schedule: Q01DX001 (ip), vehicle: saline): 116 % of control
- T/C (endpoint: median tumor weight change, dose: 0.62 mg/kg/injection, schedule: Q01DX001 (ip), vehicle: saline): 115 % of control
- T/C (endpoint: median tumor weight change, dose: 1.25 mg/kg/injection, schedule: Q01DX001 (ip), vehicle: saline): 98 % of control
- T/C (endpoint: median tumor weight change, dose: 2.5 mg/kg/injection, schedule: Q01DX001 (ip), vehicle: saline): 85 % of control
- T/C (endpoint: median tumor weight change, dose: 5.0 mg/kg/injection, schedule: Q01DX001 (ip), vehicle: saline): 100 % of control

Compound: O=C(CCCN1CCC(O)(c2cccc(C(F)(F)F)c2)CC1)c1ccc(F)cc1
- T/C (endpoint: median tumor weight (est.), dose: 3.12 mg/kg/injection, schedule: Q07DX005 (ip), vehicle: Klucel (hydroxypropylcellulose) (HPC)): 116 % of control and 118 % of control
- T/C [4]: 55 % of control and 62 % of control

Compound: O=C1N(CC2CO2)CCN1CC1CO1 (configuration not stated)
- T/C (endpoint: median tumor weight change, dose: 125.0 mg/kg/injection, schedule: Q01DX001 (ip), vehicle: suspension in saline): 30 % of control

Compound: C[CH2][Ge]([CH2]C)[CH2]C.C[CH2][Ge]([CH2]C)[CH2]C.C[CH2][Ge]([CH2]C)[O][Ge]([CH2]C)[CH2]C
- T/C [1]: 81 % of control
- T/C [3]: 114 % of control
